Test results published in patent publication EP4577640B1, “COMPOSITION COMPRISING AVENANTHRAMIDE C FOR INDUCING DIFFERENTIATION OF MESENCHYMAL STEM CELLS INTO CHONDROCYTES AND METHOD OF USING THE SAME” (Medeze Treasury Ptd. Ltd, priority 2023, dated 2025).

Key:
[1] = tested on: mouse articular chondrocytes; settings: cited from earlier work
[2] = tested on: Adipose-derived Mesenchymal Stem Cells (MSCs); assay: Immunofluorescence analysis of chondrocyte marker proteins on day 21 of in vitro chondrogenic differentiation (monolayer culture); format: cell-based, human
Method: (§1) In Vitro Chondrogenic Differentiation: In Vitro, chondrogenic differentiation using monolayer culture was performed. P4 MSCs were seeded in Gelatin-coated 24 well plates at 6000 cells/cm2. MSCs were expanded for 3 days before switching to the following Chondrocyte differentiation media (CDM) for 21 days (FIG. 1A).
(§2) Standard chondrocyte differentiation medium (STD) consists of DMEM Low Glucose (DMEM LG; Gibco #31600083), supplemented with 0.5 µg/ml hydrocortisone (Sigma-Aldrich #H0888), 1% Fetal bovine serum (FBS; Biowest #S181B), 1 X Insulin-Transferrin-Selenium-X (ITS-X; Gibo #51500056) or ITS+1 Liquid Media Supplement (Sigma-Aldrich #I2521), 10ng/ml recombinant human TGF-beta 3 (R&D Systems #8420-B3-025), […] L-ascorbate-2-phosphate (Sigma-Aldrich #49752), 1% Penicillin-Streptomycin (pen-strep; Gibco #15140122) and 500ng/ml Amphotericin B (Amp B; Gibco #15290026). Standard CDM (STD) will be used as a control (FIG. 1A).
Standard chondrocyte differentiation medium (STD) or CDM1 is then supplemented with 3 different treatment groups: 100 nM Avenanthramide C (Avn C; Sigma-Aldrich #36465) in CDM2, 500 ug/mL Chondroitin Sulfate (5 x CS; Sigma-Aldrich #C4384) in CDM3, and combination of 100 nM Avenanthramide C and 500 ug/mL Chondroitin Sulfate in CDM4 (FIG. 1A). […]

[3] = tested on: Adipose-derived Mesenchymal Stem Cells (MSCs); assay: RT-PCR mRNA expression analysis of chondrocyte markers relative to GAPDH; format: cell-based, human; settings: Avn C treatment alone
Method: as §1
as §2, with “1A). […]” for “1A).”
It is imperative to investigate the impact of Avn C on transcriptionally regulated chondrocyte properties, both when used individually and in conjunction with chondroitin sulfate at an optimal dosage of 500ug/mL (5X CS). To assess this, RT-PCR mRNA expression analysis is employed, which offers precise quantitative data on relative mRNA expressions. […]

Structure (SMILES): O=C(/C=C/c1ccc(O)c(O)c1)Nc1ccc(O)cc1C(=O)O [Avn C, Avenanthramide C]
- expression of catabolic factors MMP-3, -12, and -13 ([1]; induced by IL-1β in mouse articular chondrocytes): effectively suppressed the expression of catabolic factors
- IL-1β-mediated reduction of mature factors Collagen 2 (COL2A1) and SOX9 ([1]; mouse articular chondrocytes): did not impact the IL-1β-mediated reduction of mature factors
- expression of the COL2A1 protein (immunofluorescence signals) ([2]; 21-day treatment, CDM2 (STD + 100 nM Avn C) compared to CDM1 (STD)): significantly increasing the expression of the COL2A1 protein
- optimal concentration of Avn C for enhancing Collagen 2A1 protein signals ([2]; 21 days in STD with 0 nM, 10 nM, 100 nM, 1 uM, 10 uM, 50 uM Avn C, MSCs from a different individual): around 100 nM
- COL2A1 expression, transcriptional versus protein level [3]: influences COL2A1 at protein levels (FIGS. 2 and 3) rather than at the transcriptional level
